These are literature values, as cited in PubChem BioAssay AID1259409 (Chemical Carcinogenesis Research Information System (CCRIS), 2018).

SMILES strings stand for the structures.

The test system of this series is rodent chemically induced tumor inhibition, incidence and multiplicity. Put plainly: CCRIS tumor inhibitor studies.

For `[O]=[V](=[O])[OH]`, the “tumour outcome (control, treated, inhibition, significance)” value reads like this: (Carcinogen: 7,12-DIMETHYLBENZ[A]ANTHRACENE (57-97-6), Dose [Inhibitor]: DRINKING WATER, Route [Inhibitor]: 4.27 µM/L DIRECTLY AFTER CARCINOGEN UNTIL 34 WKS, Species: RAT, Strain/Sex: SPRAGUE-DAWLEY/FEMALE, Target Tissue: Type of Lesion: MAMMARY: CARCINOMA, Dose [Carcinogen]: 0.5 MG/100 G BW AT 50 D OF AGE ONCE (STUDY DURATION: 35 WKS)) 100%, 60%, 40%, p<0.05; (Carcinogen: N,N-Diethylnitrosamine;(55-18-5, Dose [Inhibitor]: 0.5 ppm as vanadium starting 4 wk prior to DEN and stopped at week 4, Route [Inhibitor]: Oral (drinking water), Species: Rats, Strain/Sex: Sprague-Dawley/Male, Target Tissue: Type of Lesion: Liver: Preneoplastic nodules, Dose [Carcinogen]: Single 200 mg/kg dose in 0.9% saline at wk 4 of experiment, Promoter: Phenobarbital) 15/15 (100%), 4/12 (33.33%), 66.67%. The outcome reads like this: (Carcinogen: 7,12-Dimethylbenzanthracene, 57-97-6, Dose [Inhibitor]: 0.5 ppm in drinking water beginning immediately after carcinogen up to 35 wks study duration, Route [Inhibitor]: Oral, Species: Rat, Strain/Sex: Sprague-Dawley/Female, Target Tissue: Type of Lesion: Mammary gland: Adenocarcinoma, Dose [Carcinogen]: 0.5 mg/100 g bw iv once, study duration 35 wk, Promoter: None) 9/10 (90%), 6/10 (60%), p<0.05; (Carcinogen: INTRAVENOUS; Dose [Inhibitor]: 7,12-DIMETHYLBENZ[A]ANTHRACENE; 57-97-6; Route [Inhibitor]: 0; 0.5 PPM IN DRINKING WATER FOR 35 WK BEGINNING IMMEDIATELY POST CARCINOGEN TREATMENT, STUDY DURATION: 35 WK), Species: RAT, Strain/Sex: SPRAGUE-DAWLEY/FEMALE, Target Tissue: Type of Lesion: 9/10 (90%), 6/10 (60%), 33%, P<0.05) 8.11, 5.33, 34%, p<0.01.
As for `CCCCCCC[Se]C#N`, the “tumour outcome (control, treated, inhibition, significance)” value (Carcinogen: 7,12-DIMETHYLBENZ[A]ANTHRACENE, 57-97-6, Dose [Inhibitor]: 0.1, 2 PPM (SELENIUM) IN DIET FOR 3 WK BEGINNING 2 WK PRIOR TO CARCINOGEN DOSE (STUDY DURATION: 25 WK), Route [Inhibitor]: ORAL, Species: RAT, Strain/Sex: SPRAGUE-DAWLEY/FEMALE, Target Tissue: Type of Lesion: MAMMARY GLAND: TUMOR, Dose [Carcinogen]: 10 MG ONCE, Promoter: NONE USED) is recorded as 25/30 (83%), 11/30 (37%), 55%, p<0.05.
Turning to `CCCCCCCC/C=C\CCCCCCCC(=O)O`, the “tumour outcome (control, treated, inhibition, significance)” value was 17/22 (77%), 19/22 (86%), -12%, not significant (Carcinogen: 1,2-DIMETHYLHYDRAZINE, 540-73-8, Dose [Inhibitor]: 0, 1 MG/D FOR 25 WK BEGINNING 3 WK PRIOR TO CARCINOGEN (STUDY DURATION: 25 WK), Route [Inhibitor]: ORAL, Species: RAT, Strain/Sex: CD-1/MALE, Target Tissue: Type of Lesion: COLON: TUMOR, Dose [Carcinogen]: 15 MG/KG 1/WK FOR 16 WK); 16/50 (32%), 0/50 (0%), 100%, not calculated (Carcinogen: BENZO[A]PYRENE, 50-32-8, Dose [Inhibitor]: 25 MG IN 0.1 ML ACETONE 3/WK ADMINISTERED SIMULTANEOUSLY WITH CARCINOGEN FOR DURATION OF STUDY (STUDY DURATION: 440 D), Route [Inhibitor]: DERMAL, Species: MOUSE, Strain/Sex: ICR/FEMALE, Target Tissue: Type of Lesion: SKIN: PAPILLOMA, Dose [Carcinogen]: 5 UG IN 0.1 ML ACETONE 3/WK FOR DURATION OF STUDY, Promoter: NONE USED); 12/50 (24%), 0/50 (0%), 100%, not calculated (Carcinogen: BENZO[A]PYRENE, 50-32-8, Dose [Inhibitor]: 25 MG IN 0.1 ML ACETONE 3/WK ADMINISTERED SIMULTANEOUSLY WITH CARCINOGEN FOR DURATION OF STUDY (STUDY DURATION: 440 D), Route [Inhibitor]: DERMAL, Species: MOUSE, Strain/Sex: ICR/FEMALE, Target Tissue: Type of Lesion: SKIN: SQUAMOUS CARCINOMA, Dose [Carcinogen]: 5 UG IN 0.1 ML ACETONE 3/WK FOR DURATION OF STUDY, Promoter: NONE USED).
Regarding `O=C(O)c1ccc(-c2c3nc(c(-c4ccc(C(=O)O)cc4)c4ccc([nH]4)c(-c4ccc(C(=O)O)cc4)c4ccc([nH]4)c(-c4ccc(C(=O)O)cc4)c4nc2C=C4)C=C3)cc1`, the “tumour outcome (control, treated, inhibition, significance)” value (Carcinogen: 7,12-DIMETHYLBENZ[A]ANTHRACENE [57-97-6], Dose [Inhibitor]: 0, 0.1% IN 0.2 ML DMSO-ACETONE (15:85, V/V) 2X/WK FOR 30 WK 10 MIN PRIOR TO PROMOTER DOSE (STUDY DURATION: 31 WK), Route [Inhibitor]: DERMAL, Species: MOUSE, Strain/Sex: ICR/FEMALE, Target Tissue: Type of Lesion: SKIN: PAPILLOMA, Dose [Carcinogen]: 0.2 UMOL ONCE (STUDY DURATION: 31 WK), Promoter: 12-O-TETRADECANOYLPHORBOL-13-ACETATE [16561-29-8]) is 100%, 73%, 27%, not calculated.
`O=S(=O)(O)CCSSCCS(=O)(=O)O`: the “tumour outcome (control, treated, inhibition, significance)” value runs as follows: (Carcinogen: CYCLOPHOSPHAMIDE, 50-18-0, Dose [Inhibitor]: 12 MG/KG BW IN DRINKING WATER 5/WK FOR 20 MO SIMULTANEOUSLY WITH CARCINOGEN TREATMENT (STUDY DURATION: 20 MO), Route [Inhibitor]: ORAL, Species: RAT, Strain/Sex: SPRAGUE-DAWLEY/MALE, Target Tissue: Type of Lesion: NERVOUS TISSUE: NEOPLASM, Dose [Carcinogen]: 2.5 MG/KG BW IN DRINKING WATER 5/WK FOR 20 MO, Promoter: NONE USED) 14%, 15%, -7%, not calculated; (Carcinogen: CYCLOPHOSPHAMIDE, 50-18-0, Dose [Inhibitor]: 12 MG/KG BW IN DRINKING WATER 5/WK FOR 20 MO SIMULTANEOUSLY WITH CARCINOGEN TREATMENT (STUDY DURATION: 20 MO), Route [Inhibitor]: ORAL, Species: RAT, Strain/Sex: SPRAGUE-DAWLEY/MALE, Target Tissue: Type of Lesion: URINARY BLADDER: TUMOR, Dose [Carcinogen]: 2.5 MG/KG BW IN DRINKING WATER 5/WK FOR 20 MO, Promoter: NONE USED) 30%, 12%, 60%, p>0.0005*; (Carcinogen: CYCLOPHOSPHAMIDE, 50-18-0, Dose [Inhibitor]: 12 MG/KG BW IN DRINKING WATER 5/WK FOR DURATION OF STUDY SIMULTANEOUSLY WITH CARCINOGEN TREATMENT (STUDY DURATION: LIFE), Route [Inhibitor]: ORAL, Species: RAT, Strain/Sex: SPRAGUE-DAWLEY/MALE, Target Tissue: Type of Lesion: URINARY BLADDER: PAPILLOMA, CARCINOMA, Dose [Carcinogen]: 2.5 MG/KG BW IN DRINKING WATER 5/WK FOR DURATION OF STUDY, Promoter: NONE USED) 32/100 (32%), 7/50 (14%), 56%, p<0.00005*; (Carcinogen: CYCLOPHOSPHAMIDE, 50-18-0, Dose [Inhibitor]: 35 MG/KG BW IN DRINKING WATER 5/WK FOR 20 MO SIMULTANEOUSLY WITH CARCINOGEN TREATMENT (STUDY DURATION: 20 MO), Route [Inhibitor]: ORAL, Species: RAT, Strain/Sex: SPRAGUE-DAWLEY/MALE, Target Tissue: Type of Lesion: NERVOUS TISSUE: NEOPLASM, Dose [Carcinogen]: 2.5 MG/KG BW IN DRINKING WATER 5/WK FOR 20 MO, Promoter: NONE USED) 14%, 15%, -7%, not calculated; (Carcinogen: CYCLOPHOSPHAMIDE, 50-18-0, Dose [Inhibitor]: 35 MG/KG BW IN DRINKING WATER 5/WK FOR 20 MO SIMULTANEOUSLY WITH CARCINOGEN TREATMENT (STUDY DURATION: 20 MO), Route [Inhibitor]: ORAL, Species: RAT, Strain/Sex: SPRAGUE-DAWLEY/MALE, Target Tissue: Type of Lesion: URINARY BLADDER: TUMOR, Dose [Carcinogen]: 2.5 MG/KG BW IN DRINKING WATER 5/WK FOR 20 MO, Promoter: NONE USED) 30%, 6%, 80%, p>0.0005*; (Carcinogen: CYCLOPHOSPHAMIDE, 50-18-0, Dose [Inhibitor]: 35 MG/KG BW IN DRINKING WATER 5/WK FOR DURATION OF STUDY SIMULTANEOUSLY WITH CARCINOGEN TREATMENT (STUDY DURATION: LIFE), Route [Inhibitor]: ORAL, Species: RAT, Strain/Sex: SPRAGUE-DAWLEY/MALE, Target Tissue: Type of Lesion: URINARY BLADDER: PAPILLOMA, CARCINOMA, Dose [Carcinogen]: 2.5 MG/KG BW IN DRINKING WATER 5/WK FOR DURATION OF STUDY, Promoter: NONE USED) 32/100 (32%), 3/50 (6%), 81%, p<0.00005*.
With `C[C@]12CC[C@@H]3c4ccc(OC(=O)c5ccccc5)cc4CC[C@H]3[C@@H]1CC[C@@H]2O`, the “tumour outcome (control, treated, inhibition, significance)” value is 14/14 (100%), 14/14 (100%), 0%, not significant (Carcinogen: 1,2-DIMETHYLHYDRAZINE DIHYDROCHLORIDE, 306-37-6, Dose [Inhibitor]: 0, 15 UG/KG IN PEANUT OIL ON DAYS 1 AND 3 OF STUDY THEN 1/WK FOR 30 WK (STUDY DURATION: 31 WK), Route [Inhibitor]: SUBCUTANEOUS, Species: RAT, Strain/Sex: SPRAGUE-DAWLEY/MALE, Target Tissue: Type of Lesion: COLON: ADENOCARCINOMA, Dose [Carcinogen]: 9 MG/KG 1/WK FOR 7 WK THEN 19.4 MG/KG 1/WK FOR 13 WK, Promoter: NONE USED) and 13/14 (93%), 11/14 (79%), 15%, not significant (Carcinogen: 1,2-DIMETHYLHYDRAZINE DIHYDROCHLORIDE, 306-37-6, Dose [Inhibitor]: 0, 15 UG/KG IN PEANUT OIL ON DAYS 1 AND 3 OF STUDY THEN 1/WK FOR 30 WK (STUDY DURATION: 31 WK), Route [Inhibitor]: SUBCUTANEOUS, Species: RAT, Strain/Sex: SPRAGUE-DAWLEY/MALE, Target Tissue: Type of Lesion: SMALL INTESTINE: ADENOCARCINOMA, Dose [Carcinogen]: 9 MG/KG 1/WK FOR 7 WK THEN 19.4 MG/KG 1/WK FOR 13 WK, Promoter: NONE USED).
Consider `C=CCS(=O)(=O)CC=C`, for which the outcome (Carcinogen: Vinyl carbamate, 15805-73-9, Dose [Inhibitor]: 50 mg/kg once at beginning of experiment (Study duration: 25 wk), Route [Inhibitor]: Oral, Species: Mouse, Strain/Sex: F1 (Big Blue x A/J), Target Tissue: Type of Lesion: Lung: Papilliary tumors and solid tumors, Dose [Carcinogen]: 60 mg/kg once 2 hr after inhibitor (Study duration: 25 wk), Promoter: None) is “papilliary tumors: 84 (58%), 21 (13.5%), p<0.01 (significant decrease). solid tu”.
